In patent US7638510B2, “Use of s-10-hydroxy-10,11-dihydro-carbamazepine for the treatment of anxiety and bipolar disorders” (Novartis AG, priority 2003, dated 2009):

System: rat
Assay: Vogel conflict test (punished drinking)
Format: in vivo
Settings: for PUNISHED DRINKING (number of shocks) mean ± s.e.m.: 3 minute period; for PUNISHED DRINKING % change from control: vs vehicle; for efficacy compared between racemate and enantiomers: 50-200 mg/kg p.o.; for efficacy compared with the positive control clobazam: 50-200 mg/kg p.o. vs clobazam 64 mg/kg
Procedure: a) Description of method: The method, which detects anxiolytic and related other psychiatric activity, follows that described by Vogel et al, Psychopharmacologia 1971; 21:1-7 Anxiolytics and antidepressants (e.g., Fontana et al., Psychopharmacology 1989; 98(2):157-62) of various classes increase punished drinking.
Rats are deprived of water for 48 hours and are then placed individually into a transparent Plexiglas enclosure (15×32×34 cm) with a floor consisting of stainless steel bars (0.4 cm) spaced 1 cm apart The back wall of the enclosure is made of opaque Plexiglass thereby concealing the observer from the experimental animal. In the centre of the opposite wall, 5 cm above the floor, a metal water spout protrudes into the cage and is connected to one pole of a shock generator (Apelex: Type 011346). The other pole of the shock generator is connected to the metal grid floor. The rat is left to explore until it found the water spout. Then, every time it drinks, it receives a slight electric shock (1.7 mA, 1 sec.) 2 seconds after it starts lapping. The number of shocks received (punished drinkings) is counted during a 3 minute period. 15 rats are studied per group. The test is performed blind. Compounds are evaluated at 50, 100 and 200 mg/kg, administered p.o. 60 minutes before the test, and compared with a vehicle control group. Clobazam (64 mg/kg), administered under the same experimental conditions, is used as reference substance. All substances are evaluated within the same experiment and compared with the same vehicle and reference substance controls. Data are analyzed by comparing treated groups with vehicle control using unpaired Student's t tests.

| Compound | PUNISHED DRINKING (number of shocks) mean ± s.e.m. (50 mg/kg p.o. -60 min) | PUNISHED DRINKING % change from control (50 mg/kg p.o. -60 min) | PUNISHED DRINKING (number of shocks) mean ± s.e.m. (100 mg/kg p.o. -60 min) | PUNISHED DRINKING % change from control (100 mg/kg p.o. -60 min) | PUNISHED DRINKING (number of shocks) mean ± s.e.m. (200 mg/kg p.o. -60 min) | PUNISHED DRINKING % change from control (200 mg/kg p.o. -60 min) | efficacy compared between racemate and enantiomers | PUNISHED DRINKING (number of shocks) mean ± s.e.m. (64 mg/kg p.o. -60 min) | PUNISHED DRINKING % change from control (64 mg/kg p.o. -60 min) | efficacy compared with the positive control clobazam |
| --- | --- | --- | --- | --- | --- | --- | --- | --- | --- | --- |
| NC(=O)N1c2ccccc2CC(O)c2ccccc21 (racemic) [M3, 10-hydroxy-10,11-dihydro-carbamazepine] | 5.9 ± 0.5 number of shocks | +34% | 8.4 ± 1.0 number of shocks | +91% | 10.4 ± 1.5 number of shocks | +136% | between that of the R- and S-enantiomers | – | – | – |
| CN1C(=O)CC(=O)N(c2ccccc2)c2cc(Cl)ccc21 [CLOBAZAM, Clobazam, reference compound] | – | – | – | – | – | – | – | 8.2 ± 1.1 number of shocks | +86% | – |
| NC(=O)N1c2ccccc2C[C@H](O)c2ccccc21 [M5, S(+)-10,11-dihydro-10-hydroxy-5H-dibenzo[b,f]azepine-5-carboxamide] | 8.4 ± 1.3 number of shocks | +91% | 9.5 ± 1.0 number of shocks | +116% | 10.5 ± 1.3 number of shocks | +139% | – | – | – | surpasses that of clobazam at all doses tested |
| NC(=O)N1c2ccccc2C[C@@H](O)c2ccccc21 [M4, R(−)-10,11-dihydro-10-hydroxy-5H-dibenzo[b,f]azepine-5-carboxamide] | 5.0 ± 0.4 NS number of shocks | +14% | 5.5 ± 0.5 NS number of shocks | +25% | 7.4 ± 1.3 number of shocks | +68% | less efficacious than the S-enantiomer at the lowest dose used | – | – | less than that of the positive control |
